What was measured:
[1] = 101.33 kPa, Liquid; for mass density: Vibrating tube method
[2] = molar heat capacity at constant pressure; details: 298.15 K; 101.33 kPa; Liquid; Drop calorimetry
[3] = refractive index (Na D-line) (dimensionless); details: 101.33 kPa, Liquid, Standard Abbe refractometry

CCn1cc[n+](C)c1.N#CN=C=[N-] [1-ethyl-3-methylimidazolium dicyanamide]
Details	mass density, [1] [kg/m3]	refractive index, [3]	viscosity, [1] [mPa·s]
278.15 K	1117.9	–	32.51
283.15 K	1114.3	–	26.67
288.15 K	1110.9	–	22.23
288.37 K	–	1.51745	–
293.15 K	1107.4	–	18.79
293.28 K	–	1.51585	–
298.15 K	1104	–	16.09
298.19 K	–	1.51428	–
303.1 K	–	1.51269	–
303.15 K	1100.6	–	13.92
308.01 K	–	1.51112	–
308.15 K	1097.3	–	12.16
312.91 K	–	1.50956	–
313.15 K	1094	–	10.72
318.15 K	1090.7	–	9.519
323.15 K	1087.4	–	8.518
328.15 K	1084.2	–	7.673
333.15 K	1081	–	6.951
338.15 K	1077.8	–	6.327
343.15 K	1074.7	–	5.788
348.15 K	1071.6	–	5.319
353.15 K	1068.5	–	4.909
358.15 K	1065.4	–	4.548
363.15 K	1062.3	–	4.229

Details	molar heat capacity at constant pressure [J/K/mol]
[2]	314.63

CCn1cc[n+](C)c1.CO[PH](=O)[O-] [1-ethyl-3-methylimidazolium methyl phosphonate]
Details	mass density, [1] [kg/m3]	refractive index, [3]	viscosity, [1] [mPa·s]
278.15 K	1222.2	–	916.06
283.15 K	1218.6	–	598.79
288.15 K	1215.1	–	406.82
288.37 K	–	1.49534	–
293.15 K	1211.7	–	285.8
293.28 K	–	1.4939	–
298.15 K	1208.3	–	206.76
298.19 K	–	1.49249	–
303.1 K	–	1.49115	–
303.15 K	1205	–	153.63
308.01 K	–	1.48982	–
308.15 K	1201.8	–	116.89
312.91 K	–	1.48854	–
313.15 K	1198.6	–	90.83
317.82 K	–	1.48714	–
318.15 K	1195.5	–	71.92
323.15 K	1192.3	–	57.94
328.15 K	1189.2	–	47.38
333.15 K	1186.1	–	39.29
338.15 K	1183	–	32.99
343.15 K	1179.9	–	28.02
348.15 K	1176.9	–	24.05
353.15 K	1173.9	–	20.83
358.15 K	1170.9	–	18.2
363.15 K	1167.9	–	16.03

Details	molar heat capacity at constant pressure [J/K/mol]
[2]	354.63

CCn1cc[n+](C)c1.N#C[S-] [1-ethyl-3-methylimidazolium thiocyanate]
Details	mass density, [1] [kg/m3]	refractive index, [3]	viscosity, [1] [mPa·s]
278.15 K	1129.7	–	54.57
283.15 K	1126.5	–	43.51
288.15 K	1123.3	–	35.36
293.15 K	1120.1	–	29.21
298.15 K	1117	–	24.5
303.15 K	1113.9	–	20.79
308.15 K	1110.8	–	17.86
313.15 K	1107.8	–	15.49
318.15 K	1104.8	–	13.56
323.15 K	1101.8	–	11.97
328.15 K	1098.8	–	10.64
332.55 K	–	1.53909	–
333.15 K	1095.9	–	9.528
334.52 K	–	1.5385	–
336.48 K	–	1.53794	–
338.15 K	1093	–	8.582
338.44 K	–	1.53739	–
340.41 K	–	1.53682	–
342.37 K	–	1.53636	–
343.15 K	1090.1	–	7.773
348.15 K	1087.2	–	7.076
353.15 K	1084.3	–	6.472
358.15 K	1081.5	–	5.945
363.15 K	1078.7	–	5.485

Details	molar heat capacity at constant pressure [J/K/mol]
[2]	281.45

CCn1cc[n+](C)c1.O=S(=O)([O-])C(F)(F)F [1-ethyl-3-methylimidazolium trifluoromethanesulfonate]
Details	mass density, [1] [kg/m3]	refractive index, [3]	viscosity, [1] [mPa·s]
278.15 K	1403.3	–	99.83
283.15 K	1398.9	–	78.93
288.15 K	1394.5	–	63.51
288.37 K	–	1.43572	–
293.15 K	1390.2	–	51.87
293.28 K	–	1.43432	–
298.15 K	1385.9	–	42.94
298.19 K	–	1.43296	–
303.1 K	–	1.43159	–
303.15 K	1381.6	–	35.98
308.01 K	–	1.43025	–
308.15 K	1377.3	–	30.48
312.91 K	–	1.42886	–
313.15 K	1373.1	–	26.09
318.15 K	1368.9	–	22.53
323.15 K	1364.8	–	19.62
328.15 K	1360.6	–	17.21
333.15 K	1356.5	–	15.21
338.15 K	1352.5	–	13.52
343.15 K	1348.4	–	12.1
348.15 K	1344.4	–	10.88
353.15 K	1340.4	–	9.845
358.15 K	1336.4	–	8.948
363.15 K	1332.5	–	8.169

Details	molar heat capacity at constant pressure [J/K/mol]
[2]	362.8

Source: the NIST ThermoML archive (doi:10.1021/je200790q)
